Laboratory results from patent US20130266557A1, “METHODS FOR TREATMENT OF A SARCOMA USING AN EPIMETABOLIC SHIFTER (COENZYME Q10)” (priority 2009, published 2013).

Tested on: NCIES0808 cells
Assay: Two-dimensional gel analysis with MS identification
Format: cell-based, human
Conditions: − = down, 1 = no change; for Spot 154, Translin-associated factor X: modulation vs control media / Spot 240, Proteasome 26S subunit 13; Endophilin B1: modulation vs control media / Spot 284, Proteasome 26S subunit: modulation vs control media / Spot 583, hnRNP C1/C2: modulation vs control media / Spot 612, Myosin Regulatory Light Chain: modulation vs control media / Spot 667, Dismutase Cu/Zn Superoxide: modulation vs control media / Spot 685, hnRNP C1/C2: modulation vs control media / Spot 746, Actin-like 6A; Eukaryotic Initiation Factor 4All: modulation vs control media / Spot 938, Nuclear Chloride Channel protein: modulation vs control media / Spot 940, Ubiquilin 1; Phosphatase 2A: modulation vs control media: 3 hours; for Spot 452, acid phosphatase 1: modulation vs control media / Spot 477, diazepam binding inhibitor: modulation vs control media / Spot 530, ribosomal protein SA: modulation vs control media / Spot 652, proteasome beta 3: modulation vs control media / Spot 720, dCTP pyrophosphatase 1: modulation vs control media / Spot 773, proteasome beta 4: modulation vs control media / Spot 1057, Arsenite translocating ATPase; Spermine synthetase: modulation vs control media: 6 hours
Description: NCIES0808 cells were plated in T25 flasks in experimental conditions similar to those described in the PCR array section. At the end of the treatment time, cells were trypsinized as described in the PCR array section and washed twice in ice cold TBS and snap frozen in liquid nitrogen. Further processing for Western blots was carried out at UMass.
Before isoelectric focusing (IEF), samples were solubilized in 40 mM Tris, 7 M urea, 2 M thiourea, and 1% C7 zwitterionic detergent, reduced with tributylphosphine, and alkylated with 10 mM acrylamide for 90 min at room temperature. After the sample was run through a 10-kDa cutoff Amicon Ultra device with at least 3 volumes of the resuspension buffer, consisting of 7 M urea, 2 M thiourea, and 2% CHAPS to reduce the conductivity of the sample. One hundred micrograms of protein were subjected to IEF on 11-cm pH 3 to 10, pH 4 to 7 or pH 6 to 11 immobilized pH gradient strips (GE, Amersham, USA) to 100,000 volts hour. After IEF, immobilized pH gradient strips were equilibrated in 6 M urea, 2% SDS, 50 mM Tris-acetate buffer, pH 7.0, and 0.01% bromphenol blue and subjected to SDS-polyacrylamide gel electrophoresis on 8 to 16% Tris-HCl Precast Gel, 1 mm (Bio-Rad, USA). The gels were run in duplicate. They were fixed, stained in SYPRO Ruby, 80 mL/gel (Invitrogen, USA) and imaged on Fuji FLA-5100 laser scanner.
Analysis of all gel images was performed using Progenesis Discovery and Pro (Nonlinear Dynamics Inc., Newcastle upon Tyne, UK). After spot detection, matching, background subtraction, normalization, and filtering, data for SYPRO Ruby gel images was exported. […] Manual annotation of each statistically significant spots was performed to assure accurate detection.
Tryptic peptides extracted from respective gel plugs were dried down to a 10 ul volume and acidified with 1-2 ul of 1% TFA. Samples were loaded on an uC18 Zip Tip (Millipore, Corp) after pre-equilibration in 0.1% TFA. After washing with 2×10 ul aliquots of 0.1% TFA, samples were deposited directly onto the MALDI sample target using 1 ul of Matrix solution 15 mg/ml of 2,5 Dihydroxybenzoic Acid (MassPrep DHB, Waters Corp.) in 50:50 Acetonitrile: 0.1% TFA. Samples were allowed to air dry prior to insertion into the mass spectrometer. Analysis were performed on a Kratos Axima QIT (Shimadzu Instruments) matrix-assisted-laser desorption/ionization (MALDI) mass spectrometer. Peptides were analyzed in positive ion mode in mid mass range (700-3000 Da). The instrument was externally calibrated with Angiotensin II (1046.54), P14R (1533.86) and ACTH (18-39) 2465.20 Da. Precursors were selected based on signal intensity at a mass resolution width of 250 for CID fragmentation using Argon as the collision gas. Database searches were performed in house with Mascot (Matrix Sciences, Ltd.) using the Peptide Mass Fingerprint program for MS data and the MS/MS Ion Search program for CID data. All identifications were confirmed or established with CID (MS/MS) data.
NCIES0808 cells treated for 3, 6 and 24 hours were subjected to 2-D gel electrophoreses and were analyzed to identify protein-level changes relative to the control media samples. A comparative analysis of spots across multiple duplicated gels was performed, comparing the “control media sample” against all of the treated samples at both the 50 uM and 100 uM doses. The analysis included the identification of spot changes over the time course due to an increase, decrease, or post-translational modification.

Coenzyme Q10 [CoQ10]
1.5: Spot 240, Proteasome 26S subunit 13; Endophilin B1: modulation vs control media (100 uM Q10) | Spot 583, hnRNP C1/C2: modulation vs control media (100 uM Q10)
1.1: Spot 244, heat shock protein 70 kD: modulation vs control media (24 hours, 50 uM Q10) | Spot 275, microtubule associated protein: modulation vs control media (24 hours, 50 uM Q10) | Spot 314, proteasome alpha 3: modulation vs control media (24 hours, 50 uM Q10) | Spot 369, eukaryotic translation elongation factor 1 delta: modulation vs control media (24 hours, 50 uM Q10)
1: Spot 154, Translin-associated factor X: modulation vs control media (50 uM Q10) | Spot 940, Ubiquilin 1; Phosphatase 2A: modulation vs control media (50 uM Q10)
−1.5: Spot 452, acid phosphatase 1: modulation vs control media (100 uM Q10)
1.7: Spot 311, beta tubulin: modulation vs control media (24 hours, 50 uM Q10)
−1.2: Spot 938, Nuclear Chloride Channel protein: modulation vs control media (50 uM Q10) | Spot 746, Actin-like 6A; Eukaryotic Initiation Factor 4All: modulation vs control media (100 uM Q10) | Spot 938, Nuclear Chloride Channel protein: modulation vs control media (100 uM Q10) | Spot 530, ribosomal protein SA: modulation vs control media (50 uM Q10) | Spot 720, dCTP pyrophosphatase 1: modulation vs control media (50 uM Q10) | Spot 477, diazepam binding inhibitor: modulation vs control media (100 uM Q10) | Spot 720, dCTP pyrophosphatase 1: modulation vs control media (100 uM Q10) | Spot 773, proteasome beta 4: modulation vs control media (100 uM Q10) | Spot 1057, Arsenite translocating ATPase; Spermine synthetase: modulation vs control media (100 uM Q10) | Spot 234, hnRNP C1/C2: modulation vs control media (24 hours, 50 uM Q10)
−1.4: Spot 667, Dismutase Cu/Zn Superoxide: modulation vs control media (100 uM Q10) | Spot 477, diazepam binding inhibitor: modulation vs control media (50 uM Q10) | Spot 530, ribosomal protein SA: modulation vs control media (100 uM Q10)
−1.9: Spot 154, Translin-associated factor X: modulation vs control media (100 uM Q10)
−1.3: Spot 240, Proteasome 26S subunit 13; Endophilin B1: modulation vs control media (50 uM Q10) | Spot 746, Actin-like 6A; Eukaryotic Initiation Factor 4All: modulation vs control media (50 uM Q10) | Spot 452, acid phosphatase 1: modulation vs control media (50 uM Q10) | Spot 652, proteasome beta 3: modulation vs control media (100 uM Q10) | Spot 130, ribosomal proten P2; histone H2A: modulation vs control media (24 hours, 50 uM Q10)
1.2: Spot 685, hnRNP C1/C2: modulation vs control media (50 uM Q10) | Spot 685, hnRNP C1/C2: modulation vs control media (100 uM Q10) | Spot 363, ATP dependent helicase II: modulation vs control media (24 hours, 50 uM Q10)
1.4: Spot 583, hnRNP C1/C2: modulation vs control media (50 uM Q10) | Spot 612, Myosin Regulatory Light Chain: modulation vs control media (50 uM Q10) | Spot 612, Myosin Regulatory Light Chain: modulation vs control media (100 uM Q10) | Spot 16, alpha 2-HS glycoprotein (Bos Taurus, cow): modulation vs control media (24 hours, 50 uM Q10)
−1.1: Spot 284, Proteasome 26S subunit: modulation vs control media (50 uM Q10) | Spot 667, Dismutase Cu/Zn Superoxide: modulation vs control media (50 uM Q10) | Spot 652, proteasome beta 3: modulation vs control media (50 uM Q10) | Spot 773, proteasome beta 4: modulation vs control media (50 uM Q10) | Spot 1057, Arsenite translocating ATPase; Spermine synthetase: modulation vs control media (50 uM Q10)
1.3: Spot 940, Ubiquilin 1; Phosphatase 2A: modulation vs control media (100 uM Q10) | Spot 180, beta actin: modulation vs control media (24 hours, 50 uM Q10)
−1.6: Spot 284, Proteasome 26S subunit: modulation vs control media (100 uM Q10)
